Assay results: ChEMBL document CHEMBL1145468, “Serum differentially alters the antifungal properties of echinocandin drugs” (Antimicrob Agents Chemother, 2007)
In brackets after ≈: the same amount, converted by molar mass. *1 amine or outer side, *2 acyl side, *3 side chain or, on linkers, in order; H or OH if unused. Where a SMILES comes first, the peptide text is derived from it. Bridges are numbered along the chain shown (N, C = ends). [ ]: non-standard residue; d: D form. The star is where a group is joined. hTyr(3S-OH,4S-OH,3'-OSO3H) = N[C@H](C(=O)O)[C@H](O)[C@@H](O)c1ccc(O)c(OS(=O)(=O)O)c1; pTerphenylCO(4''-OnC5H11) = CCCCCOc1ccc(-c2ccc(-c3ccc(C(=O)*)cc3)cc2)cc1; Orn(4R-OH,5R-OH) = O=C([C@H](C[C@@H](O)[C@@H](O)N[*:3])N[*:1])[*:2]; hTyr(3S-OH,4S-OH) = N[C@H](C(=O)O)[C@H](O)[C@@H](O)c1ccc(O)cc1; Pro(3S-OH,4S-Me) = C[C@H]1CN[C@H](C(=O)O)[C@H]1O; X1 = CCCCCOc1ccc(-c2cc(-c3ccc(C(=O)*)cc3)no2)cc1; Gln(3R-OH) = NC(=O)C[C@@H](O)[C@H](N)C(=O)O; Hyp = O=C(O)[C@@H]1C[C@@H](O)CN1

Columns and labels:
Candida tropicalis = experiment: Ratio of MIC for Candida tropicalis to MIC for Candida tropicalis in presence of 50% human serum; type: functional
Glucan synthase [1] = molecular target: T1, Glucan synthase (Candida albicans, UniProt O13423); experiment: Inhibition of glucan synthase in Candida albicans ATCC 90028 in presence of 20% human serum
T1 sequence (O13423 whole entry): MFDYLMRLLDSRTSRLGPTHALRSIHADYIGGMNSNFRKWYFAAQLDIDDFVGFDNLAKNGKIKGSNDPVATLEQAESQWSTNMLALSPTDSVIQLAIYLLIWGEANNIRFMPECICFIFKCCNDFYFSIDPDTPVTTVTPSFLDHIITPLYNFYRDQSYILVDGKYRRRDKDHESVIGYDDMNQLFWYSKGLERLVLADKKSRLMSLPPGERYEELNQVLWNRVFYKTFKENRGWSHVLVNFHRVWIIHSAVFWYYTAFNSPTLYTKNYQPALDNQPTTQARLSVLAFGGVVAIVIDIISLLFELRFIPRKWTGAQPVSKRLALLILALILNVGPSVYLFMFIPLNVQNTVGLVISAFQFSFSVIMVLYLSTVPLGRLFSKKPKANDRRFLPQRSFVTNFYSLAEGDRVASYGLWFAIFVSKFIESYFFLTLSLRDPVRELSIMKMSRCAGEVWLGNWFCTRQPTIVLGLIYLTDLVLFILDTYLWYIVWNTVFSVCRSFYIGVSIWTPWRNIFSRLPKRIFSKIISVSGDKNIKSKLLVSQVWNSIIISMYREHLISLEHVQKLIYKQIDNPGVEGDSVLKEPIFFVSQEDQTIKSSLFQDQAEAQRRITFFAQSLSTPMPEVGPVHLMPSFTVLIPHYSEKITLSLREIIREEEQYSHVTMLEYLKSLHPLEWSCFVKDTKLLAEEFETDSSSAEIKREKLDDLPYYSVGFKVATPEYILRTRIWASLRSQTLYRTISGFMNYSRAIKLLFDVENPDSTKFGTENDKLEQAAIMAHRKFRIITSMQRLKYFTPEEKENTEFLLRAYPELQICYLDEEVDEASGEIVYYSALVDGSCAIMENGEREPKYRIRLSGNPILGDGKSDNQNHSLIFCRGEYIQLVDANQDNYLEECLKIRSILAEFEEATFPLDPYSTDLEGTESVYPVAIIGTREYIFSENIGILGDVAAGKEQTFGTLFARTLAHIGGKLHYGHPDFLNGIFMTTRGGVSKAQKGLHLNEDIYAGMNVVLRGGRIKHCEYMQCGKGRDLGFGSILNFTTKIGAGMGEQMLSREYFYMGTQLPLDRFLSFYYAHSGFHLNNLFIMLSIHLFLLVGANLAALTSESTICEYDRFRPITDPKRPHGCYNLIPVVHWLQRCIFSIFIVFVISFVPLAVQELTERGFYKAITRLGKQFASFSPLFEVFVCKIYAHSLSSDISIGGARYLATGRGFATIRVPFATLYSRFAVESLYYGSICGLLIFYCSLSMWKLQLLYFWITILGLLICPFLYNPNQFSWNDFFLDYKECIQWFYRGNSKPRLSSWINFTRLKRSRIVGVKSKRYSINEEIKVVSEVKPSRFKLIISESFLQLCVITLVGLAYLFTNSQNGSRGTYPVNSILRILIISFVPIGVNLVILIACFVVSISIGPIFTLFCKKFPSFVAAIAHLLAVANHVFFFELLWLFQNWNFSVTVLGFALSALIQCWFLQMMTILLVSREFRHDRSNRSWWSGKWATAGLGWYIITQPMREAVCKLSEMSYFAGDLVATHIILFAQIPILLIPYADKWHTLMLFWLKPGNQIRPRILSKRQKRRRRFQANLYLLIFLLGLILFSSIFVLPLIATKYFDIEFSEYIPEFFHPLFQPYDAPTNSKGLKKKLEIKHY

[2] = Inhibition of glucan synthase in Aspergillus fumigatus R21
Glucan synthase [3] = molecular target: T1, Glucan synthase; experiment: Inhibition of glucan synthase in Candida albicans ATCC 90028
[4] = Inhibition of glucan synthase in Aspergillus fumigatus ATCC 13073 in presence of 20% human serum
[5] = Inhibition of glucan synthase in Aspergillus fumigatus MF5668 in presence of 50% human serum
Glucan synthase [6] = molecular target: T1, Glucan synthase; experiment: Inhibition of glucan synthase in Candida albicans SC5314
Aspergillus terreus = experiment: Ratio of MIC for Aspergillus flavus to MIC for Aspergillus terreus in presence of 50% human serum; type: functional
Glucan synthase [7] = molecular target: T1, Glucan synthase; experiment: Inhibition of glucan synthase in Candida albicans 36082 assessed as incorporation of [3H]uridine diphosphoglucose in presence of 50% serum
Aspergillus flavus = experiment: Ratio of MIC for Aspergillus flavus to MIC for Aspergillus flavus in presence of 50% human serum; type: functional
Glucan synthase [8] = molecular target: T1, Glucan synthase; experiment: Inhibition of glucan synthase in Candida albicans ATCC 36082 in presence of 10% human serum
[9] = Inhibition of glucan synthase in Aspergillus fumigatus MF5668
Aspergillus niger = experiment: Ratio of MIC for Aspergillus flavus to MIC for Aspergillus niger in presence of 50% human serum; type: functional
Aspergillus fumigatus = experiment: Ratio of MIC for Aspergillus fumigatus to MIC for Aspergillus fumigatus in presence of 50% human serum; type: functional
Glucan synthase [10] = molecular target: T1, Glucan synthase; experiment: Inhibition of glucan synthase in Candida albicans 36082 assessed as incorporation of [3H]uridine diphosphoglucose in presence of 20% serum
Glucan synthase [11] = molecular target: T1, Glucan synthase; experiment: Inhibition of glucan synthase in Candida albicans SC5314 in presence of 50% human serum
[12] = Inhibition of glucan synthase in Aspergillus fumigatus R21 in presence of 50% human serum
Glucan synthase [13] = molecular target: T1, Glucan synthase; experiment: Inhibition of glucan synthase in Candida albicans SC5314 in presence of 20% human serum
Glucan synthase [14] = molecular target: T1, Glucan synthase; experiment: Inhibition of glucan synthase in Candida albicans ATCC 36082 in presence of 20% human serum
Glucan synthase [15] = molecular target: T1, Glucan synthase; experiment: Inhibition of glucan synthase in Candida albicans ATCC 90028 in presence of 50% human serum
Nakaseomyces glabratus = experiment: Ratio of MIC for Candida glabrata to MIC for Candida glabrata in presence of 50% mouse serum; type: functional
Candida parapsilosis = experiment: Ratio of MIC for Candida parapsilosis to MIC for Candida parapsilosis in presence of 50% human serum; type: functional
Glucan synthase [16] = molecular target: T1, Glucan synthase; experiment: Inhibition of glucan synthase in Candida albicans 36082 assessed as incorporation of [3H]uridine diphosphoglucose in presence of 10% serum
[17] = Inhibition of glucan synthase in Aspergillus fumigatus R21 in presence of 10% human serum
Glucan synthase [18] = molecular target: T1, Glucan synthase; experiment: Inhibition of glucan synthase in Candida albicans SC5314 in presence of 10% human serum
[19] = Inhibition of glucan synthase in Aspergillus fumigatus ATCC 13073 in presence of 10% human serum
Candida albicans [20] = experiment: Ratio of MIC for Candida albicans to MIC for Candida albicans in presence of 50% human serum; type: functional
[21] = Inhibition of glucan synthase in Aspergillus fumigatus MF5668 in presence of 20% human serum
Pichia kudriavzevii = experiment: Ratio of MIC for Candida krusei to MIC for Candida krusei in presence of 50% human serum; type: functional
[22] = Inhibition of glucan synthase in Aspergillus fumigatus MF5668 in presence of 10% human serum
[23] = Inhibition of glucan synthase in Aspergillus fumigatus R21 in presence of 20% human serum
[24] = Inhibition of glucan synthase in Aspergillus fumigatus ATCC 13073
Candida albicans [25] = experiment: Antifungal activity against Candida albicans 36082 infected BALB/c mouse assessed as fungal kidney burden after 14 days; type: functional; conditions: 336 h
Glucan synthase [26] = molecular target: T1, Glucan synthase; experiment: Inhibition of glucan synthase in Candida albicans ATCC 90028 in presence of 10% human serum
Glucan synthase [27] = molecular target: T1, Glucan synthase; experiment: Inhibition of glucan synthase in Candida albicans ATCC 36082
Glucan synthase [28] = molecular target: T1, Glucan synthase; experiment: Inhibition of glucan synthase in Candida albicans 36082 assessed as incorporation of [3H]uridine diphosphoglucose
[29] = Inhibition of glucan synthase in Aspergillus fumigatus ATCC 13073 in presence of 50% human serum
Glucan synthase [30] = molecular target: T1, Glucan synthase; experiment: Inhibition of glucan synthase in Candida albicans ATCC 36082 in presence of 50% human serum

| Compound | Ratio (Candida tropicalis) | IC50 (Glucan synthase [1]) | IC50 [2] | IC50 (Glucan synthase [3]) | IC50 [4] | IC50 [5] | IC50 (Glucan synthase [6]) | Ratio (Aspergillus terreus) | Ratio (Aspergillus flavus) | IC50 (Glucan synthase [8]) | IC50 [9] | Ratio (Aspergillus niger) | Ratio (Aspergillus fumigatus) | IC50 (Glucan synthase [11]) | IC50 [12] | IC50 (Glucan synthase [13]) | IC50 (Glucan synthase [14]) | IC50 (Glucan synthase [15]) | Ratio (Nakaseomyces glabratus) | Ratio (Candida parapsilosis) | further results |
| --- | --- | --- | --- | --- | --- | --- | --- | --- | --- | --- | --- | --- | --- | --- | --- | --- | --- | --- | --- | --- | --- |
| CCCCCOc1ccc(-c2ccc(-c3ccc(C(=O)N[C@H]4C[C@@H](O)[C@@H](O)NC(=O)[C@@H]5[C@@H](O)[C@@H](C)CN5C(=O)[C@H]([C@@H](C)O)NC(=O)[C@H]([C@H](O)[C@@H](O)c5ccc(O)cc5)NC(=O)[C@@H]5C[C@@H](O)CN5C(=O)[C@H]([C@@H](C)O)NC4=O)cc3)cc2)cc1 [ANIDULAFUNGIN] ({pTerphenylCO(4''-OnC5H11)}-[Orn(4R-OH,5R-OH)]T[Hyp][hTyr(3S-OH,4S-OH)]T[Pro(3S-OH,4S-Me)]; lactam 1-C) | 128 | 16.3 nM | 0.75 ng/mL (≈ 0.658 nM) | 0.877 nM | 77.4 ng/mL | 28.1 ng/mL | 15 nM | 16 | 32 | 21 nM | 0.29 ng/mL (≈ 0.254 nM) | 32 | 32 | 78.1 nM | 11.9 ng/mL | 65.5 nM | 62.7 nM | 21.7 nM | 64 | 8 | IC50 (Glucan synthase [7]): 25.8 nM; IC50 (Glucan synthase [10]): 16.4 nM; IC50 (Glucan synthase [16]): 4.14 nM; IC50 [17]: 1.9 ng/mL; IC50 (Glucan synthase [18]): 13.4 nM; IC50 [19]: 21.4 ng/mL; Ratio (Candida albicans [20]): 16; IC50 [21]: 6.9 ng/mL; Ratio (Pichia kudriavzevii): 32; IC50 [22]: 5.5 ng/mL; IC50 [23]: 3.1 ng/mL; IC50 [24]: 13.3 ng/mL (≈ 11.7 nM); ED90 (Candida albicans [25]): 1.17 mg/kg; ED99 (Candida albicans [25]): 1.36 mg/kg; IC50 (Glucan synthase [26]): 4.14 nM; IC50 (Glucan synthase [27]): 16.2 nM; IC50 (Glucan synthase [28]): 0.88 nM |
| CC[C@H](C)C[C@H](C)CCCCCCCCC(=O)N[C@H]1C[C@@H](O)[C@@H](NCCN)NC(=O)[C@@H]2[C@@H](O)CCN2C(=O)[C@H]([C@H](O)CCN)NC(=O)[C@H]([C@H](O)[C@@H](O)c2ccc(O)cc2)NC(=O)[C@@H]2C[C@@H](O)CN2C(=O)[C@H]([C@@H](C)O)NC1=O [CASPOFUNGIN] | 4 | 1.92 nM | 1.6 ng/mL (≈ 1.46 nM) | 0.274 nM | 5.9 ng/mL | 4.8 ng/mL | 13.4 nM | 4 | 8 | 2.56 nM | 1.1 ng/mL (≈ 1.01 nM) | 8 | 11 | 73.6 nM | 10.3 ng/mL | 33.8 nM | 4.85 nM | 5.76 nM | 4 | 4 | IC50 (Glucan synthase [7]): 5.69 nM; IC50 (Glucan synthase [10]): 1.9 nM; IC50 [29]: 9.4 ng/mL; IC50 (Glucan synthase [16]): 1.21 nM; IC50 [17]: 2.7 ng/mL; IC50 (Glucan synthase [18]): 24.7 nM; IC50 [19]: 2.8 ng/mL; Ratio (Candida albicans [20]): 2; IC50 [21]: 3.2 ng/mL; Ratio (Pichia kudriavzevii): 8; IC50 [22]: 1 ng/mL; IC50 [23]: 3.6 ng/mL; IC50 [24]: 2 ng/mL (≈ 1.83 nM); IC50 (Glucan synthase [30]): 7.96 nM; ED90 (Candida albicans [25]): 1.05 mg/kg; ED99 (Candida albicans [25]): 1.1 mg/kg; IC50 (Glucan synthase [26]): 1.19 nM; IC50 (Glucan synthase [27]): 0.823 nM; IC50 (Glucan synthase [28]): 0.302 nM |
| CCCCCOc1ccc(-c2cc(-c3ccc(C(=O)N[C@H]4C[C@@H](O)[C@@H](O)NC(=O)[C@@H]5[C@@H](O)[C@@H](C)CN5C(=O)[C@H]([C@H](O)CC(N)=O)NC(=O)[C@H]([C@H](O)[C@@H](O)c5ccc(O)c(OS(=O)(=O)O)c5)NC(=O)[C@@H]5C[C@@H](O)CN5C(=O)[C@H]([C@@H](C)O)NC4=O)cc3)no2)cc1 [MICAFUNGIN] (X1-[Orn(4R-OH,5R-OH)]T[Hyp][hTyr(3S-OH,4S-OH,3'-OSO3H)][Gln(3R-OH)][Pro(3S-OH,4S-Me)]; lactam 1-C) | 128 | 39.4 nM | 3.7 ng/mL (≈ 2.91 nM) | 14.2 nM | 7.5 ng/mL | 7.6 ng/mL | 21.2 nM | 32 | 33 | 18.7 nM | 2.2 ng/mL (≈ 1.73 nM) | 133 | 64 | 70.6 nM | 23.2 ng/mL | 39.8 nM | 24.7 nM | 71 nM | 64 | 8 | IC50 [29]: 9.8 ng/mL; IC50 [17]: 6.2 ng/mL; IC50 (Glucan synthase [18]): 25.7 nM; IC50 [19]: 4.7 ng/mL; Ratio (Candida albicans [20]): 64; IC50 [21]: 3.3 ng/mL; Ratio (Pichia kudriavzevii): 133; IC50 [22]: 3.2 ng/mL; IC50 [23]: 10.3 ng/mL; IC50 [24]: 2 ng/mL (≈ 1.57 nM); IC50 (Glucan synthase [30]): 44.9 nM; ED90 (Candida albicans [25]): 1.97 mg/kg; ED99 (Candida albicans [25]): 3.71 mg/kg; IC50 (Glucan synthase [26]): 22.4 nM; IC50 (Glucan synthase [27]): 8.5 nM |
